# Test results from ChEMBL document CHEMBL1126578, “Synthesis and optical resolution of (R)- and (S)-trans-7-Hydroxy-2-[N-propyl-N-(3'-iodo-2'-propenyl)amino]tetralin: a new D3 dopamine receptor ligand” (J Med Chem, 1993).
# Molecular target: D(3) dopamine receptor (Rattus norvegicus) (UniProt P19020)
# Assay: Saturable binding was tested dopamine receptor D3 in rat striatal membrane homogenate
# Format: cell membranes
# Details: Striatum
# Chain of D(3) dopamine receptor (Rattus norvegicus) (P19020 whole entry): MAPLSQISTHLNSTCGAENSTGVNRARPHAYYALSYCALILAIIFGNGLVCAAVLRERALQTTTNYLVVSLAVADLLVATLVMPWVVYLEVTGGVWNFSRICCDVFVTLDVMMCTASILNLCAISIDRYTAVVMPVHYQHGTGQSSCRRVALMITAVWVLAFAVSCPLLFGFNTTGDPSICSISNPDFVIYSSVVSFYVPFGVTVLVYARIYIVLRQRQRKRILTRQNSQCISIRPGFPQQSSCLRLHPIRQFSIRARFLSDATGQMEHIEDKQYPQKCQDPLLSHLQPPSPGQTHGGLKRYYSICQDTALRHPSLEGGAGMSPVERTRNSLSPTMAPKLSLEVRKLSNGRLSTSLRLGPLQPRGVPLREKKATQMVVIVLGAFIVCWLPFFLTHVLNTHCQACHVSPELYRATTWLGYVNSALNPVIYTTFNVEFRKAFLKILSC
structure (smiles),measurement,value
CCCN(C/C=C/I)C1CCc2ccc(O)cc2C1 (stereo unspecified),Bmax (fM (mg of protein)-1),240
